Measurements as given in patent US20080003684A1, “DIAGNOSTIC METHOD FOR MYOPATHY” (priority 2006, published 2008).

Experiments:
human skeletal muscle [1] = assay: Gene set enrichment analysis (GSEA) of muscle microarray data; details: high dose statin treatment, FDR<0.25
human skeletal muscle [2] = assay: Whole genome microarray analysis in muscle biopsies, single-gene analysis; details: high dose statin treatment, criteria 1.5-fold change and p-value <0.05
ALOX5AP = assay: RealTime Quantitative TaqMan PCR of muscle RNA; assay type: in vivo, human; details: n=5, p=0.041
Experimental: (§1) Based on a hierarchical cluster analysis (described in Example 1) 20 genes were selected for further RT-PCR control in order to identify a gene expression based fingerprint for statin effect on human skeletal muscle.
(§2) The microarray expression results recorded in the simvastatin group (n=5, for one case there was not enough muscle RNA for PCR) were verified by RealTime Quantitative TaqMan PCR. Previously purified cRNA was used as starting material for cDNA synthesis. A 1000 ng-18 μl aliquote of cRNA was mixed with 1 μl Promega Random Primer (C1181, Promega U.S., Madison, Wis., USA) and incubated in +70° C. for 10 min. The following reagents were added leading to 25 μl total reaction volume: 1 μl of 10 μM dNTP blend (F09892, Applied Biosystems, Foster City, Calif., USA), 1 μl of Promega M-MLV Reverse Transcriptase 200 U/μl (M3682) and 4 μl of M-MLV RT 5× reaction buffer. Finally the incubations were performed in the following order: 10 min in RT, 50 min in 45° C., and, 10 min in 70° C. 10 μl volume was used for PCR reaction, consisting of 2 μl aliquote of 1:10 diluted cDNA sample, and, Abgene ABsolute 2×QPCR ROX mix (AB-1139, Abgene, Epsom, UK). The primer concentrations were 300 nM, probe concentrations for Universal Probe Library (Exiqon, Vedbaek, Denmark) probes 100 nM and for ordinary long probes 200 nM. Finally the PCR reactions were performed in rtPCR system (ABI Prism 7700 Sequence Detection System, Applied Biosystems) having the following PCR procedure: 95° C. for 15 min, and 40 cycles of 95° C. for 15 s and 60° C. for 1 min.

CCL5 = assay: RealTime Quantitative TaqMan PCR of muscle RNA; assay type: in vivo, human; details: n=5, p=0.011
Experimental: as §1, §2

COL3A1 = assay: RealTime Quantitative TaqMan PCR of muscle RNA; assay type: in vivo, human; details: n=5, p=0.026
Experimental: as §1, §2

MYBPH = assay: RealTime Quantitative TaqMan PCR of muscle RNA; assay type: in vivo, human; details: n=5, p=0.027
Experimental: as §1, §2

MYL5 = assay: RealTime Quantitative TaqMan PCR of muscle RNA; assay type: in vivo, human; details: n=5, p=0.021
Experimental: as §1, §2

CC(C)c1c(C(=O)Nc2ccccc2)c(-c2ccccc2)c(-c2ccc(F)cc2)n1CC[C@@H](O)C[C@@H](O)CC(=O)O [atorvastatin]
number of pathways up-regulated / affected in GSEA (human skeletal muscle [1]): no pathways appeared to be affected significantly | number of genes whose expression changed significantly during the intervention (human skeletal muscle [2]): five

CCC(C)(C)C(=O)O[C@H]1C[C@@H](C)C=C2C=C[C@H](C)[C@H](CC[C@@H]3C[C@@H](O)CC(=O)O3)[C@H]21 [simvastatin]
ALOX5AP expression change by RT-PCR (ALOX5AP): +3.6 fold | CCL5 expression change by RT-PCR (CCL5): +11.9 fold | COL3A1 expression change by RT-PCR (COL3A1): +27.1 fold | MYBPH expression change by RT-PCR (MYBPH): +49.0 fold | MYL5 expression change by RT-PCR (MYL5): +8.0 fold | number of pathways up-regulated / affected in GSEA (human skeletal muscle [1]): 143 pathways | number of genes up-regulated (human skeletal muscle [2]): 85 genes | number of genes whose expression changed significantly during the intervention (human skeletal muscle [2]): 111 genes
